According to patent US9346786B2, “Pyrrolidine compounds” (Hoffmann-La Roche Inc., priority 2009, dated 2016):
Read-outs that look alike come from different tables or passages of the source.

Experiments:
[1] = phase II trial; cited from earlier work
[2] = target: recombinant human NK3 receptor (Homo sapiens (Human), UniProt P29371); experiment: biochemical; format: binding; conditions: read-out: Data Ki (hNK-3 receptor affinity)
[3] = [3H]SR142801, membranes of HEK293 cells transiently expressing recombinant human NK3 receptor

Chain of recombinant human NK3 receptor (P29371 whole entry): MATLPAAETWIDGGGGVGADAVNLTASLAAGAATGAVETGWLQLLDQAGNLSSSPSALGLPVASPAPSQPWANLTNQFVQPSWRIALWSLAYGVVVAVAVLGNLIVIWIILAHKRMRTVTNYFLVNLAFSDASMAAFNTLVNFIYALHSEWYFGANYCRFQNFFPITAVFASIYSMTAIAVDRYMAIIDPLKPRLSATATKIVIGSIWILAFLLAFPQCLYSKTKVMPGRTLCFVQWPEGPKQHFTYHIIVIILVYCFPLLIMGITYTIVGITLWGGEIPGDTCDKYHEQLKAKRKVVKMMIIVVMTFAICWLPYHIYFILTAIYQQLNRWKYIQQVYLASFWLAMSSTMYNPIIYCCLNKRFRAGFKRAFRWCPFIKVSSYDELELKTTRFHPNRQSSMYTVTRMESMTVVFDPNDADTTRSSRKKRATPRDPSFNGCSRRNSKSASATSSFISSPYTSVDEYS

SMILES	Ki [2, 3] [nM]	further results
CC(=O)N(C)C1(c2ccccc2)CCN(CCC[C@]2(c3ccc(Cl)c(Cl)c3)CCCN(C(=O)c3ccccc3)C2)CC1 [SR 142,801, Osanetant]		activity on negative symptoms of schizophrenia [1]: inactive in the treatment of negative symptoms; activity on positive symptoms of schizophrenia [1]: active on positive symptoms of schizophrenia
CCN(C(=O)Oc1ccc(F)cc1)[C@@H]1CN(C(=O)C2CCN(C(=O)C3(C)COC3)CC2)C[C@H]1c1ccc(Cl)cc1 [Example 88, {(3S,4R)-4-(4-Chloro-phenyl)-1-[1-(3-methyl-oxetane-3-carbonyl)-piperidine-4-carbonyl]-pyrrolidin-3-yl}-ethyl-carbamic acid 4-fluoro-phenyl ester]	5.6	
CCN(C(=O)Oc1ccc(F)cc1)[C@H]1CN(C(=O)C2CCN(c3cc(C#N)ccn3)CC2)C[C@@H]1c1ccc(Cl)cc1 [Example 9, [(3R,4S)-4-(4-Chloro-phenyl)-1-(4′-cyano-3,4,5,6-tetrahydro-2H-[1,2′]bipyridinyl-4-carbonyl)-pyrrolidin-3-yl]-ethyl-carbamic acid 4-fluoro-phenyl ester]		Ki [2]: 138 nM
CCN(C(=O)Oc1ccc(F)cc1)[C@@H]1CN(C(=O)C2CCN(C(=O)C3(C)CC3)CC2)C[C@H]1c1ccc(F)c(F)c1 [Example 52, {(3S,4R)-4-(3,4-Difluoro-phenyl)-1-[1-(1-methyl-cyclopropanecarbonyl)-piperidine-4-carbonyl]-pyrrolidin-3-yl}-ethyl-carbamic acid 4-fluoro-phenyl ester]	15	
CCN(C(=O)Oc1ccc(F)cc1)[C@@H]1CN(C(=O)C2CCN(C(=O)[C@@H]3CC(=O)N3)CC2)C[C@H]1c1ccc(Cl)cc1 [Example 121, {(3S,4R)-4-(4-Chloro-phenyl)-1-[1-((S)-4-oxo-azetidine-2-carbonyl)-piperidine-4-carbonyl]-pyrrolidin-3-yl}-ethyl-carbamic acid 4-fluoro-phenyl ester]	16.9	
CCN(C(=O)Oc1ccc(F)cc1)[C@@H]1CN(C(=O)C2CCN(C(=O)C3CC(F)C3)CC2)C[C@H]1c1ccc(Cl)c(F)c1 (stereo partly drawn) [Example 69, {(3S,4R)-4-(4-Chloro-3-fluoro-phenyl)-1-[1-(3-fluoro-cyclobutanecarbonyl)-piperidine-4-carbonyl]-pyrrolidin-3-yl}-ethyl-carbamic acid 4-fluoro-phenyl ester]	2	
CCN(C(=O)Oc1ccc(F)cc1)[C@@H]1CN(C(=O)C2CCN(c3ccc(C(N)=O)cn3)CC2)C[C@H]1c1ccc(Cl)c(Cl)c1 [Example 115, [(3S,4R)-1-(5′-Carbamoyl-3,4,5,6-tetrahydro-2H-[1,2′]bipyridinyl-4-carbonyl)-4-(3,4-dichloro-phenyl)-pyrrolidin-3-yl]-ethyl-carbamic acid 4-fluoro-phenyl ester]	0.9	
CCN(C(=O)Oc1ccc(F)cc1)[C@@H]1CN(C(=O)C2CCN(C(=O)C3(COC)CC3)CC2)C[C@H]1c1ccc(Cl)cc1 [Example 99, {(3S,4R)-4-(4-Chloro-phenyl)-1-[1-(1-methoxymethyl-cyclopropanecarbonyl)-piperidine-4-carbonyl]-pyrrolidin-3-yl}-ethyl-carbamic acid 4-fluoro-phenyl ester]		Ki [2]: 4.7 nM
CCN(C(=O)Oc1ccc(F)cc1)[C@@H]1CN(C(=O)C2CCN(S(C)(=O)=O)CC2)C[C@H]1c1ccc(Cl)c(F)c1 [Example 81, [(3S,4R)-4-(4-Chloro-3-fluoro-phenyl)-1-(1-methanesulfonyl-piperidine-4-carbonyl)-pyrrolidin-3-yl]-ethyl-carbamic acid 4-fluoro-phenyl ester]	29	
